Experimental data as given in patent US8138191B2, “Inhibitor compounds and cancer treatment methods” (Critical Outcome Technologies Inc., priority 2007, dated 2012).
Read-outs that look alike come from different tables or passages of the source.

Key:
[1] = system: DMS114 and SHP-77 human small cell lung cancer lines; experiment: Actual outcome of in vitro testing in both reference human SCLC lines; assay type: cell-based
Method: (§1) Briefly, cells were plated in plastic tissue culture plates and grown under standard conditions for each cell line, in carbon dioxide/oxygen atmosphere in plastic tissue culture plates, in the presence of COTI-2 or COTI-219 compounds at 35° C. for 3 days. Control cultures were treated with vehicle minus compound. Cells were counted after 3 days in culture and at a cell density of no more than 80%. The following cell lines, obtained from the National Cancer Institute, were tested: human SCLC cell lines DMS153, DMS114, SHP77; human NSCLC cell lines H226, A460, A560; human breast cancer cell lines T47D, MCF7; human colon cancer cell line HT29; and, human Leukemia cell lines K562, HL60.

[2] = system: SHP77; experiment: in vitro IC50 against cancer cell lines, SHP77; assay type: cell-based; conditions: Homo sapiens, 72 h; SHP77, SCLC, 3 days
Method: as §1

[3] = system: DMS153; experiment: in vitro IC50 against cancer cell lines, DMS153; assay type: cell-based; conditions: Homo sapiens, DMS-153, 72 h; DMS153, SCLC, 3 days
Method: as §1

[4] = system: T47D; experiment: in vitro IC50 against cancer cell lines, T47D; assay type: cell-based; conditions: Homo sapiens, 72 h, Breast Cancer, 3 days
Method: as §1

[5] = system: HL60; experiment: in vitro IC50 against cancer cell lines, HL60; assay type: cell-based; conditions: Homo sapiens, HL-60, 72 h; HL60, Leukemia, 3 days
Method: as §1

[6] = system: DMS153; experiment: Resistance testing over 5 generations, DMS153; assay type: cell-based, human; conditions: DMS153, 5 generations
Method: (§2) In order to evaluate the induction of resistance in vitro, compounds according to the invention were tested in head to head comparisons against conventional therapeutic agents Cisplatin® and Taxotere®. The compound designated COTI-4 (which is the subject of Applicant's co-pending U.S. provisional patent application entitled “Composition and Method for Treatment” filed Dec. 26, 2007) was also tested. The structure for COTI-4 is:
(§3) IC50 values were obtained using methods known to persons skilled in the art with two different human SCLC cell lines (DMS153 and SHP77) obtained from the National Cancer Institute. […] The procedure was repeated for a total of 5 generations. Emerging resistance was identified by increasing IC50 values in successive generations.

[7] = system: SHP77; experiment: Resistance testing over 5 generations, SHP77; assay type: cell-based, human; conditions: SHP77, 5 generations
Method: as §2, §3

[8] = system: Standard lab mice; experiment: Escalating dose acute toxicity study in mice; conditions: 4, 8, 16 mg/kg alternate day IP, 28 days
Text: Mice were given alternate day IP injections for 28 days. […] Blood and tissue samples were harvested for histopathology.

[9] = Half-life and liver clearance rate by human liver microsomes (HLM) at 0.5 mg/mL; assay type: in vitro ADME; conditions: liver microsomes
Method: Sampling was conducted at 1, 20, 40, 60, 120,180 and 240 minutes and the remaining concentration of each compound was evaluated. A half life (T1/2) was calculated at each concentration, along with the rate of clearance by the liver (CL). The CL values compare favorably with published values for other marketed therapeutic agents under identical conditions. The half life of compounds according to the invention is therefore likely to be long enough to permit convenient dosing, while not being so long as to lead to accumulation in patients with potential long term toxicity effects.
The incubation mixture (500 μl) consisted of 100 μl of COTI-2, 150 μl of liver microsomal fractions (1.67 mg/ml rat/human) 35.5 μl of 100 mM phosphate buffer and 214.5 μl co-factor (NADPH, UDPGA, and MgCl2). The COTI-2 compound mixture and co-factor were pre-warmed at 37° C. for 5 min, with shaking at 150 rpm. The reaction was started by adding co-factor to the test compound mixture. The final concentration of the incubation mixture was as follows:
Blank incubation was performed with the co-factors. The sampling time points included 0 and 240 min for the blank sample, and 0, 20, 40, 60, 120, 180, and 240 min for COTI-2. At each time point 50 μl of sample was added to 150 μl of methanol to stop the reaction. The sample plates were centrifuged at 4200 rpm for 15 min and the supernatant was injected into LC-MS/MS for analysis. The percent compound remaining, rate of elimination (Kel), half-life (T1/2), and intrinsic clearance (CL) using standard calculations.

[10] = system: H292; experiment: CellTiter-Blue growth inhibition, single agents and combinations, H292; assay type: cell-based; conditions: Homo sapiens, read-out: Mean IC50, single agent
Method: (§4) The stock concentration was further diluted to 1 mM and added to a drug plate. […] Following dilution, 2 μl of test agent was transferred to the corresponding wells of a cell-containing 96-well plate with 198 μl of growth media. Tarceva® (erlotinib) was supplied by LC Labs (Woburn, Mass.).
(§5) Viable cell numbers were quantified by the CellTiter-Blue® cell viability assay, which measures the conversion of the indicator dye (resazurin) to resorufin, an indicator of cell viability. Experiments were repeated at least twice with the same concentrations to determine growth inhibitory activity.
(§6) The CI, a numerical value calculated as described in equation A, also provides a quantitative measure of the extent of drug interaction. A CI of less than, equal to, and more than 1 indicates synergy, additivity, and antagonism, respectively. CI=(CAx/ICx,A)+(CB,x/ICx,B) Equation A: Where CA,x and CB,x, are the concentrations of drug A and drug B used in combination to achieve x % drug effect. ICx,A and ICx,B are the concentrations for single agents to achieve the same effect.

[11] = system: HCT-116; experiment: CellTiter-Blue growth inhibition, single agents and combinations, HCT-116; assay type: cell-based; conditions: Homo sapiens, read-out: Mean IC50, single agent
Method: as §4
as §5, with “Cells were grown to 70% confluency, trypsinized, counted, and seeded in 96-well flat-bottom plates at a final concentration of 2.5×10^3−5×10^3 cells/well (Day 0). […] Viable” for “Viable”
as §6

[12] = system: U87; experiment: IC50 human glioma/astrocytoma cell lines (alamar Blue), U87; conditions: Homo sapiens, U-87 MG
Method: (§7) Cell lines were obtained from the Human Tissue Culture Collection (ATCC), grown and maintained under ATCC-specified conditions, and tested to ensure viability and lack of contaminating mycoplasma and common viruses. […] A viability stain (alamar Blue) was added to cells after 4-7 days of drug exposure (approximately 4 doublings of control cells; maximum cell density in wells approximately 80%), and assayed for total cellular metabolic activity (a function of population density of live cells) by absorbance.

[13] = system: SF-268; experiment: IC50 human glioma/astrocytoma cell lines (alamar Blue), SF-268
Method: as §7

[14] = 10 μmol, read-out: In vitro T½ (converted)
[15] = 100 μmol, read-out: In vitro T½ (converted)
[16] = average over 1, 10 and 100 μM, read-out: average half life (converted)
[17] = value before brackets, from 3 in vitro experiments, read-out: In vitro T½

For `S=C(N/N=C1/CCCc2cccnc21)N1CCN(c2ccccn2)CC1` [COTI-2], the “Actual outcome of in vitro testing” value [1] was “Active”, the IC50 [2] was 156 nM and the IC50 [3] was 73 nM. For the same compound, the IC50 [4] was 221 nM, the IC50 [5] was 236 nM and the “emerging resistance: ratio of IC50 to IC50 of parental generation” value (from here on “emerging resistance: ratio of IC50”) [6] was “less than 1”. For the same compound, the “emerging resistance: ratio of IC50” value [7] was “less than 1”, the “acute toxicity / adverse effects” value [8] was “No evidence of acute toxicity” and the weight loss [8] was “None of the drugs produced any weight loss”. For the same compound, the microsomal CLint at 1 µM ([9]; 1 μM) was 12 µL/min/mg, the half-life at 1 µM ([9]; 1 μM, read-out: T1/2) was 1.7 h and the half-life at 1 µM ([9]; 1 μmol, read-out: In vitro T½) was 1.7 h. For the same compound, the microsomal CLint at 10 µM ([9]; 10 μM) was 4 µL/min/mg, the half-life at 10 µM ([9]; 10 μM, read-out: T1/2) was 4.76 h and the half-life at 10 µM [9, 14] was 4.8 h. The microsomal CLint at 100 µM ([9]; 100 μM) was 2 µL/min/mg, the half-life at 100 µM ([9]; 100 μM, read-out: T1/2) was 11.4 h and the half-life at 100 µM [9, 15] was 11.4 h. The half-life [9, 16] was 6 h, the half-life [9, 17] was about 6 h and the IC50 ([10]; NCI-H292, 72 h) was 3.9 nM. The IC50 ([11]; HCT-116, 72 h) was 3.6 nM, the IC50 [12] was 48 nM and the IC50 [13] was 66 nM.
With `CN1CCN(C(=S)NN=C2c3ncccc3-c3cccnc32)CC1` [COTI-219] the “Actual outcome of in vitro testing” value [1] was “Active”, the IC50 [2] was 787 nM and the IC50 [3] was 233 nM. The IC50 [4] was 367 nM, the IC50 [5] was 374 nM and the “emerging resistance: ratio of IC50” value [6] was “little to no emerging resistance”. The “emerging resistance: ratio of IC50” value [7] was “little to no emerging resistance”, the “acute toxicity / adverse effects” value [8] was “No evidence of acute toxicity” and the weight loss [8] was “None of the drugs produced any weight loss”. It also gave a microsomal CLint at 1 µM ([9]; 1 μM) of 4.2 µL/min/mg, a half-life at 1 µM ([9]; 1 μM, read-out: T1/2) of 5.02 h and a half-life at 1 µM ([9]; 1 μmol, read-out: In vitro T½) of 5 h. It also gave a microsomal CLint at 10 µM ([9]; 10 μM) of 3 µL/min/mg, a half-life at 10 µM ([9]; 10 μM, read-out: T1/2) of 7.01 h and a half-life at 10 µM [9, 14] of 7 h. It also gave a microsomal CLint at 100 µM ([9]; 100 μM) of 2.5 µL/min/mg, a half-life at 100 µM ([9]; 100 μM, read-out: T1/2) of 8.47 h and a half-life at 100 µM [9, 15] of 8.5 h. It also gave a half-life [9, 16] of 6.8 h, a half-life [9, 17] of about 6.8 h and an IC50 ([10]; NCI-H292, H292, NSCLC, EGFR - WT, 72 h) of 20 nM. For the same compound, the IC50 ([11]; HCT-116, Colon, KRAS - MUT, 72 h) was 8.7 nM, the IC50 [12] was 2370 nM and the IC50 [13] was 1170 nM.
